# Experimental data published in ChEMBL document CHEMBL1201862, “PubChem BioAssay data set” (2004).
#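 A five-concentration, 48-hour dose response in 96-well plates underlies each endpoint, interpolated linearly between surrounding concentrations. GI50 is the concentration that inhibits growth by half.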 Active and inactive are the calls of the source. No stated cut-off is given here; in the data, active = GI50 up to about 1.1 µM and inactive = higher.
# Experiments:
# Assay in all cases: DTP human tumour cell line panel, 48 h
# ACHN = test system: ACHN
# HCT-116 = test system: HCT-116
# U-251 = test system: U-251
# TK-10 = test system: TK-10
# KM12 = test system: KM12
# SR = test system: SR
# M14 = test system: M14
# HT-29 = test system: HT-29
# SF-539 = test system: SF-539
# SNB-19 = test system: SNB-19
# UO-31 = test system: UO-31
# A549 = test system: A549
# MCF7 = test system: MCF7
# MOLT-4 = test system: MOLT-4
# OVCAR-4 = test system: OVCAR-4
# MDA-N = test system: MDA-N
# UACC-62 = test system: UACC-62
# Malme-3M = test system: Malme-3M
# DU-145 = test system: DU-145
# 786-0 = test system: 786-0
# SF-268 = test system: SF-268
# HCT-15 = test system: HCT-15
# A498 = test system: A498
# SK-MEL-2 = test system: SK-MEL-2
# NCI-H460 = test system: NCI-H460
# HL-60 = test system: HL-60
# UACC-257 = test system: UACC-257
# EKVX = test system: EKVX
# NCI/ADR-RES = test system: NCI/ADR-RES
# CAKI-1 = test system: CAKI-1
# RXF 393 = test system: RXF 393
# K562 = test system: K562
# OVCAR-8 = test system: OVCAR-8
# CCRF-CEM = test system: CCRF-CEM
# IGROV-1 = test system: IGROV-1
# HOP-92 = test system: HOP-92
# OVCAR-5 = test system: OVCAR-5
# SF-295 = test system: SF-295
# SK-OV-3 = test system: SK-OV-3
# NCI-H226 = test system: NCI-H226
# BT-549 = test system: BT-549
# NCI-H522 = test system: NCI-H522
# SK-MEL-28 = test system: SK-MEL-28
# T47D = test system: T47D
# PC-3 = test system: PC-3
# OVCAR-3 = test system: OVCAR-3
# Hs-578T = test system: Hs-578T
# SK-MEL-5 = test system: SK-MEL-5
# SN12C = test system: SN12C
# NCI-H23 = test system: NCI-H23
# HOP-62 = test system: HOP-62
# COLO 205 = test system: COLO 205
# MDA-MB-435 = test system: MDA-MB-435
# MDA-MB-231 = test system: MDA-MB-231
# LOX IMVI = test system: LOX IMVI
# SW-620 = test system: SW-620
# HCC 2998 = test system: HCC 2998
# RPMI-8226 = test system: RPMI-8226
structure (smiles),measurement,setting,value
Cc1ccc(/C=C2\CN(C)CC3=C2OC(N)=C(C#N)C3c2ccc(C)cc2)cc1 (stereo unspecified),GI50,ACHN,18.8 µM (inactive)
same,GI50,HCT-116,12.6 µM (inactive)
same,GI50,U-251,34.7 µM (inactive)
same,GI50,TK-10,31.5 µM (inactive)
same,GI50,KM12,15.5 µM (inactive)
same,GI50,SR,19.9 µM (inactive)
same,GI50,M14,20.6 µM (inactive)
same,GI50,HT-29,16.1 µM (inactive)
same,GI50,SF-539,41.7 µM (inactive)
same,GI50,SNB-19,26.4 µM (inactive)
same,GI50,UO-31,17.6 µM (inactive)
same,GI50,A549,14.4 µM (inactive)
same,GI50,MCF7,18 µM (inactive)
same,GI50,MOLT-4,7.76 µM (inactive)
same,GI50,OVCAR-4,12.2 µM (inactive)
same,GI50,MDA-N,17.2 µM (inactive)
same,GI50,UACC-62,18.4 µM (inactive)
same,GI50,Malme-3M,20.3 µM (inactive)
same,GI50,DU-145,17.9 µM (inactive)
same,GI50,786-0,15.6 µM (inactive)
same,GI50,SF-268,30.1 µM (inactive)
same,GI50,HCT-15,14.1 µM
same,GI50,A498,16 µM (inactive)
same,GI50,SK-MEL-2,39.9 µM (inactive)
same,GI50,NCI-H460,17.9 µM (inactive)
same,GI50,HL-60,< 0.01 µM (active)
same,GI50,UACC-257,18.8 µM (inactive)
same,GI50,EKVX,17.1 µM (inactive)
same,GI50,NCI/ADR-RES,20.7 µM (inactive)
same,GI50,CAKI-1,19.5 µM (inactive)
same,GI50,RXF 393,11.3 µM (inactive)
same,GI50,K562,11.2 µM (inactive)
same,GI50,OVCAR-8,13.4 µM (inactive)
same,GI50,CCRF-CEM,4.2 µM (inactive)
same,GI50,IGROV-1,7.5 µM (inactive)
same,GI50,HOP-92,1.05 µM (active)
same,GI50,OVCAR-5,22.8 µM (inactive)
same,GI50,SF-295,16.8 µM (inactive)
same,GI50,SK-OV-3,9.84 µM (inactive)
same,GI50,NCI-H226,22.2 µM (inactive)
same,GI50,BT-549,16.7 µM (inactive)
same,GI50,NCI-H522,12.2 µM (inactive)
same,GI50,SK-MEL-28,27.8 µM (inactive)
same,GI50,T47D,7.11 µM (inactive)
same,GI50,PC-3,15.7 µM (inactive)
same,GI50,OVCAR-3,12.1 µM (inactive)
same,GI50,Hs-578T,46.3 µM (inactive)
same,GI50,SK-MEL-5,25.9 µM (inactive)
same,GI50,SN12C,17.3 µM (inactive)
same,GI50,NCI-H23,16 µM (inactive)
same,GI50,HOP-62,22.7 µM (inactive)
same,GI50,COLO 205,17 µM (inactive)
same,GI50,MDA-MB-435,15.8 µM (inactive)
same,GI50,MDA-MB-231,> 38.5 µM (inactive)
same,GI50,LOX IMVI,13.5 µM (inactive)
same,GI50,SW-620,32 µM (inactive)
same,GI50,HCC 2998,15.2 µM (inactive)
same,GI50,RPMI-8226,9.98 µM (inactive)
CC(=O)O[C@@H](C1C[C@@H](C)[C@H]2[C@@](O)(O1)[C@H](O)[C@@]1(C)C3=CC[C@H]4C(C)(C)[C@@H](OC5OCC(O)C(O)C5O)CC[C@@]45C[C@@]35CC[C@]21C)C(C)(C)O (stereo partly specified),GI50,ACHN,20.8 µM (inactive)
same,GI50,HCT-116,18.1 µM (inactive)
same,GI50,U-251,16.8 µM (inactive)
same,GI50,TK-10,22.6 µM (inactive)
same,GI50,KM12,22.5 µM (inactive)
same,GI50,SR,14.7 µM (inactive)
same,GI50,M14,29.3 µM (inactive)
same,GI50,HT-29,25.8 µM (inactive)
same,GI50,SF-539,15.7 µM (inactive)
same,GI50,SNB-19,34.4 µM (inactive)
same,GI50,UO-31,30.2 µM (inactive)
same,GI50,A549,30.6 µM (inactive)
same,GI50,MCF7,17.9 µM (inactive)
same,GI50,MOLT-4,12.3 µM (inactive)
same,GI50,OVCAR-4,33.9 µM (inactive)
same,GI50,MDA-N,26.9 µM (inactive)
same,GI50,UACC-62,18.5 µM (inactive)
same,GI50,Malme-3M,23.8 µM (inactive)
same,GI50,DU-145,25.5 µM (inactive)
same,GI50,786-0,26.1 µM (inactive)
same,GI50,SF-268,34 µM (inactive)
same,GI50,HCT-15,28.4 µM
same,GI50,A498,23.8 µM (inactive)
same,GI50,SK-MEL-2,18.6 µM (inactive)
same,GI50,NCI-H460,18.2 µM (inactive)
same,GI50,HL-60,1.56 µM (inactive)
same,GI50,UACC-257,19.7 µM (inactive)
same,GI50,EKVX,24.2 µM (inactive)
same,GI50,NCI/ADR-RES,46.8 µM (inactive)
same,GI50,CAKI-1,38.7 µM (inactive)
same,GI50,RXF 393,15.9 µM (inactive)
same,GI50,K562,28.2 µM (inactive)
same,GI50,OVCAR-8,29.8 µM (inactive)
same,GI50,CCRF-CEM,2.82 µM (inactive)
same,GI50,IGROV-1,33.2 µM (inactive)
same,GI50,HOP-92,23.8 µM (inactive)
same,GI50,OVCAR-5,28.6 µM (inactive)
same,GI50,SF-295,21.1 µM (inactive)
same,GI50,SK-OV-3,26.5 µM (inactive)
same,GI50,NCI-H226,20.6 µM (inactive)
same,GI50,BT-549,26.7 µM (inactive)
same,GI50,NCI-H522,17.8 µM (inactive)
same,GI50,SK-MEL-28,23.2 µM (inactive)
same,GI50,T47D,23.7 µM (inactive)
same,GI50,PC-3,21.7 µM (inactive)
same,GI50,OVCAR-3,20.7 µM (inactive)
same,GI50,Hs-578T,30.1 µM (inactive)
same,GI50,SK-MEL-5,17.8 µM (inactive)
same,GI50,SN12C,22.8 µM (inactive)
same,GI50,NCI-H23,22.4 µM (inactive)
same,GI50,HOP-62,32.7 µM (inactive)
same,GI50,COLO 205,22 µM (inactive)
same,GI50,MDA-MB-435,24 µM (inactive)
same,GI50,MDA-MB-231,18.3 µM (inactive)
same,GI50,LOX IMVI,19.5 µM (inactive)
same,GI50,SW-620,30.2 µM (inactive)
same,GI50,HCC 2998,14.3 µM (inactive)
same,GI50,RPMI-8226,18 µM (inactive)
